Test systems include ACHN renal; EKVX NSCLC; IGROV1 ovarian; MDA-MB-231 breast; MDA-MB-435; MOLT-4 leukemia; NCI-H522 lung; RPMI-8226 leukemia.
Common to all, as to experiment: inhibition of tumour cell growth, NCI panel, 48 h

Data on nine molecules can be found in PubChem BioAssay (NCI).

Structures are written as SMILES. Values joined by “and” are separate entries in the source; they are usually repeats but may differ in a detail not shown here. Equal entries are not always repeated.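 Assay format: 96-well plates, 48-hour exposure. GI50 is the concentration that inhibits growth by half. The concentration for full growth arrest is given as TGI.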

With `O=C(O)c1ccc(CSc2nc3ccccc3[nH]2)cc1`, the GI50 was more than 100 µM with ACHN renal; more than 100 µM with EKVX NSCLC; more than 100 µM with IGROV1 ovarian; more than 100 µM with MDA-MB-231 breast; more than 100 µM in the assay with MDA-MB-435; more than 100000 nM in the assay with MOLT-4 leukemia. Moreover, the GI50 with NCI-H522 lung and with RPMI-8226 leukemia was more than 100000 nM in each case. The TGI with ACHN renal, in the assay on EKVX NSCLC, with IGROV1 ovarian, in the assay on MDA-MB-231 breast, in the assay on MDA-MB-435 and in the assay with MOLT-4 leukemia was more than 100 µM each time. In addition, the TGI in the assay on NCI-H522 lung and in the assay with RPMI-8226 leukemia was more than 100 µM in each case.

Take `COc1cc(/C=C2\CCC/C(=C\c3cc(CN4CCCC4)c(O)c(OC)c3)C2=O)cc(CN2CCCC2)c1O`: the GI50 was 1.71 µM with ACHN renal; 6.94 µM in the assay with EKVX NSCLC; 3.24 µM in the assay on IGROV1 ovarian; 3.81 µM with MDA-MB-231 breast; 2.75 µM in the assay with MDA-MB-435; 2430 nM with MOLT-4 leukemia. Moreover, the values for the GI50 in the assay with NCI-H522 lung and in the assay with RPMI-8226 leukemia were 2500 nM and 2160 nM, respectively. For the same molecule, the TGI in the assay on ACHN renal is 3.43 µM; with EKVX NSCLC, 20.2 µM; with IGROV1 ovarian, 13.3 µM; in the assay with MDA-MB-231 breast, 12.8 µM; with MDA-MB-435 it was 7.46 µM; in the assay with MOLT-4 leukemia it was 8.98 µM. Moreover, the TGI amounted to 7.92 µM in the assay with NCI-H522 lung and 7.58 µM in the assay with RPMI-8226 leukemia.

`CC(C)c1cnc(-c2cc(Cl)ccc2F)cc1Nc1ccncc1C(=O)NC(CO)CO`: the GI50 in the assay with ACHN renal was 11.1 µM; with EKVX NSCLC, 11.2 µM; in the assay on IGROV1 ovarian, 10.3 µM; with MDA-MB-231 breast it was 15.3 µM; in the assay with MDA-MB-435 it was 16.1 µM; with MOLT-4 leukemia it was 11700 nM. Besides, the GI50 in the assay on NCI-H522 lung is 13000 nM; in the assay on RPMI-8226 leukemia, 13500 nM. Besides, the TGI with ACHN renal was 29 µM; in the assay with EKVX NSCLC it was 24.6 µM; in the assay with IGROV1 ovarian it was 35.4 µM; in the assay with MDA-MB-231 breast it was 44.3 µM; in the assay with MDA-MB-435, 30.4 µM; in the assay on MOLT-4 leukemia it was 39.3 µM. Besides, the TGI with NCI-H522 lung came to 30.4 µM; with RPMI-8226 leukemia, 52.6 µM.

With `CC1(C)CC[C@]23CC[C@]4(C)[C@H](CC[C@@H]5[C@@]6(C)CCCNC(C)(C)[C@@H]6CC[C@]54C)[C@H]2[C@H]1OC3`, the GI50 is 1.71 µM in the assay with ACHN renal; 1.68 µM in the assay with EKVX NSCLC; 1.79 µM in the assay on IGROV1 ovarian; 1.66 µM with MDA-MB-231 breast; 1.65 µM in the assay on MDA-MB-435; 2100 nM in the assay on MOLT-4 leukemia. Also, the GI50 with NCI-H522 lung is 1900 nM; in the assay with RPMI-8226 leukemia, 1940 nM. Moreover, the TGI turned out to be 3.08 µM in the assay with ACHN renal; 3.37 µM in the assay with EKVX NSCLC; 3.48 µM with IGROV1 ovarian; 3.2 µM in the assay with MDA-MB-231 breast; 3.02 µM with MDA-MB-435; 5.04 µM in the assay with MOLT-4 leukemia. Also, the TGI stood at 3.77 µM in the assay on NCI-H522 lung and 4.58 µM with RPMI-8226 leukemia.

Regarding `Cc1c(O)cccc1C(=O)N[C@@H](CSc1ccccc1)[C@H](O)CN1C[C@H]2CCCC[C@H]2C[C@H]1C(=O)NC(C)(C)C`, the GI50 with ACHN renal is 3.02 µM and 5.69 µM; in the assay with EKVX NSCLC it was 4.86 µM and 6.92 µM; with IGROV1 ovarian it was 3.45 µM and 2.62 µM; in the assay on MDA-MB-231 breast it was 3.24 µM and 5.92 µM; with MDA-MB-435, 3.46 µM and 4.9 µM; with MOLT-4 leukemia, 2220 nM and 2960 nM. Further, the GI50 in the assay with NCI-H522 lung is 3060 nM and 2940 nM; with RPMI-8226 leukemia it was 2230 nM and 2010 nM. The TGI with ACHN renal was 13.1 µM and 17.1 µM; with EKVX NSCLC it was 38 µM and > 43.4 µM; in the assay with IGROV1 ovarian, 32 µM and 7.74 µM; in the assay with MDA-MB-231 breast, 11.5 µM and 13.7 µM; with MDA-MB-435, 12.8 µM and 38.4 µM; in the assay on MOLT-4 leukemia, 5.46 µM and 10.4 µM. Further, the TGI is 11.7 µM and 13.4 µM in the assay with NCI-H522 lung; 4.69 µM and 7.21 µM with RPMI-8226 leukemia.

In the case of `c1cc[n+](Cc2c3ccccc3cc3c2ccc2ccccc23)cc1`, the GI50 in the assay on ACHN renal is more than 100 µM; in the assay with EKVX NSCLC it was 19.5 µM; in the assay on IGROV1 ovarian it was 1.67 µM; with MDA-MB-231 breast, 6.08 µM; in the assay with MDA-MB-435 it was 3.29 µM; in the assay with MOLT-4 leukemia, 3260 nM. In addition, the GI50 with NCI-H522 lung is 1680 nM; in the assay on RPMI-8226 leukemia, 2310 nM. Also, the TGI is more than 100 µM with ACHN renal; more than 100 µM with EKVX NSCLC; 5.93 µM with IGROV1 ovarian; 20 µM with MDA-MB-231 breast; 12.2 µM in the assay with MDA-MB-435; 14.7 µM with MOLT-4 leukemia. Besides, the TGI is 5.31 µM with NCI-H522 lung and 8.87 µM with RPMI-8226 leukemia.

Take `COc1ccc2nc3cc([N+](=O)[O-])ccc3c(NCCO)c2c1`: the GI50 with ACHN renal was 4.87 µM; in the assay with EKVX NSCLC, 24.4 µM; in the assay with IGROV1 ovarian, 3.17 µM; with MDA-MB-231 breast it was 4.4 µM; in the assay on MDA-MB-435, 2.12 µM; with MOLT-4 leukemia, 1140 nM. In addition, the GI50 in the assay on NCI-H522 lung and in the assay with RPMI-8226 leukemia was 1390 nM throughout. Besides, the TGI in the assay on ACHN renal is 31.7 µM; in the assay with IGROV1 ovarian it was 13.6 µM; with MDA-MB-231 breast it was 28.1 µM; with MDA-MB-435 it was 5.09 µM; with MOLT-4 leukemia it was 6.34 µM; in the assay on NCI-H522 lung, 2.84 µM. Also, the TGI in the assay with RPMI-8226 leukemia stood at 7.16 µM.

`CCc1ccc(Oc2c(-c3ccc(OCCc4cccc(C(F)(F)F)c4)cc3O)n[nH]c2C(F)(F)F)cc1`: the GI50 in the assay with ACHN renal was 2.18 µM; in the assay on EKVX NSCLC, 5.11 µM; in the assay on IGROV1 ovarian, 2.51 µM; in the assay on MDA-MB-231 breast, 4.94 µM; in the assay on MDA-MB-435, 3.71 µM; in the assay with MOLT-4 leukemia, 1840 nM. The GI50 in the assay on NCI-H522 lung was 1880 nM; with RPMI-8226 leukemia it was 1800 nM. Further, the TGI with ACHN renal was 7.66 µM; in the assay with EKVX NSCLC, 11.2 µM; in the assay with IGROV1 ovarian it was 8.72 µM; in the assay with MDA-MB-231 breast, 11.1 µM; in the assay on MDA-MB-435, 10.3 µM; in the assay on MOLT-4 leukemia it was 7.05 µM. In addition, the TGI was found to be 5.77 µM in the assay on NCI-H522 lung and 7.55 µM with RPMI-8226 leukemia.

In the case of `CCOC(=O)c1c(-c2ccccc2)n2c(=O)cc(C)c3c(O)c(O)cc1c32`, the GI50 is 5.94 µM with ACHN renal; 8.73 µM with EKVX NSCLC; 4.99 µM in the assay with IGROV1 ovarian; 6.64 µM in the assay with MDA-MB-231 breast; 15.7 µM in the assay on MDA-MB-435; 3810 nM with MOLT-4 leukemia. Besides, the GI50 in the assay on NCI-H522 lung was 3250 nM; with RPMI-8226 leukemia, 3980 nM. The TGI is 43.1 µM with ACHN renal; 24.3 µM in the assay with EKVX NSCLC; 19.2 µM in the assay on IGROV1 ovarian; 27.7 µM in the assay on MDA-MB-231 breast; more than 100 µM in the assay on MDA-MB-435; 17.7 µM in the assay with MOLT-4 leukemia. Also, the TGI with NCI-H522 lung worked out at 11.6 µM; with RPMI-8226 leukemia, 17.9 µM.
